Data on 20 compounds can be found in ChEMBL document CHEMBL1201862, “PubChem BioAssay data set” (2004).

One series has as its system SN12K1. Put plainly: cells. Type of series: functional. Particulars: Homo sapiens.
Another series deals with P388/ADR. The series can be described thus: cells. It counts as functional. Particulars: Mus musculus.
The test system of a further series is P388. Put plainly: cells. It counts as functional. The note with it: Mus musculus.
Series [1] can be described thus: reduced cellular PGC1a acetyl-lysine signal – cell-based, cherry-picked samples, dose response (AID 720514).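 Also: potency may reflect raised or lowered acetylation signal.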 It counts as functional.
A further series deals with Cytochrome P450 2D6 (Homo sapiens, UniProt P10635).
The next series concerns the target Cytochrome P450 2C9 (Homo sapiens, UniProt P11712).
For the next series, the target named is Cytochrome P450 2C19 (Homo sapiens, UniProt P33261). The series can be described thus: Cytochrome panel assay with activity outcomes. Panel member name: p450-cyp2c19 Compounds with AC50 equal or less than 10 uM are considered active. It counts as functional.
The next series addresses Cytochrome P450 3A4 (Homo sapiens, UniProt P08684).
A short description of series [2]: HEK-293T viability loss after treatment – luminescence, T-cell screen hits, cytotoxicity control for TCR NF-kB inhibitor project, dose response (AID 489026).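 Also: cells exposed to compound about 14 hours before the viability readout.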 Type of series: functional, cell-based.
The next series deals with T1, Cytochrome P450 1A2 (Homo sapiens, UniProt P05177).
T1 sequence (P05177 whole entry): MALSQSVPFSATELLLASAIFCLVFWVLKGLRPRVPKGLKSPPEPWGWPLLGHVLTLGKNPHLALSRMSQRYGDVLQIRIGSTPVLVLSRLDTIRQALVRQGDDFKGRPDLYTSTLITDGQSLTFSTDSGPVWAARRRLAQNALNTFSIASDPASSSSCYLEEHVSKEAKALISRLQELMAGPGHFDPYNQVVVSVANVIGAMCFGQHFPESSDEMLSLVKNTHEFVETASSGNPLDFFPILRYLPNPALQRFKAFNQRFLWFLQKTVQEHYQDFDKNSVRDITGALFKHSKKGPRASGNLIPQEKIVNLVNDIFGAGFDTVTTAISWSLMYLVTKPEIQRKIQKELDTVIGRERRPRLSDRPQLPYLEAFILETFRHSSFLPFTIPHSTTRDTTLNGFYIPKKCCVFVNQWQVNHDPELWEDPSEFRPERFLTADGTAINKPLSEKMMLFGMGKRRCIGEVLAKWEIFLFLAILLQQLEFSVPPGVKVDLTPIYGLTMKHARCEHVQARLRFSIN

The target of series [3] is T2, High affinity choline transporter 1 (Homo sapiens, UniProt Q9GZV3).
T2 sequence (Q9GZV3 whole entry): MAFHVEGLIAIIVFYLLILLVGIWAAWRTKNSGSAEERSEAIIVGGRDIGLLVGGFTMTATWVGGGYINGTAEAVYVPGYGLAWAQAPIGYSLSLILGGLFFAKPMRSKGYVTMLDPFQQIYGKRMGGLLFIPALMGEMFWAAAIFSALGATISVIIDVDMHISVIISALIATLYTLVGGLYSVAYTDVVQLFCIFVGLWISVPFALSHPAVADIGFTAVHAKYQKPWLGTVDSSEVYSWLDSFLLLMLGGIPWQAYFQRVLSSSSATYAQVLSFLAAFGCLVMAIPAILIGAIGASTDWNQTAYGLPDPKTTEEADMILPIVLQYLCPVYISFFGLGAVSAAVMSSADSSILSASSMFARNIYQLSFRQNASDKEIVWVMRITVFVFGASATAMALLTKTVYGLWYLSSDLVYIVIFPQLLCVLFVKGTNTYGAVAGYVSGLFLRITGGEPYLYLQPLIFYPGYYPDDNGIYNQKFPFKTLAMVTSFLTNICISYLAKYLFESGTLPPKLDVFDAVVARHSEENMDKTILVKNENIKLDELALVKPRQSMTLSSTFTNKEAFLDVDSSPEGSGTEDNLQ
The series can be described thus: human choline transporter blockers, potency – cell-based, 5-point CRC, membrane potential dye, dose response (AID 504840). Type of series: functional.

Series [4] concerns the target T3, Replicative DNA helicase DnaB (Mycobacterium tuberculosis, UniProt P9WMR3).
T3 sequence (P9WMR3 whole entry): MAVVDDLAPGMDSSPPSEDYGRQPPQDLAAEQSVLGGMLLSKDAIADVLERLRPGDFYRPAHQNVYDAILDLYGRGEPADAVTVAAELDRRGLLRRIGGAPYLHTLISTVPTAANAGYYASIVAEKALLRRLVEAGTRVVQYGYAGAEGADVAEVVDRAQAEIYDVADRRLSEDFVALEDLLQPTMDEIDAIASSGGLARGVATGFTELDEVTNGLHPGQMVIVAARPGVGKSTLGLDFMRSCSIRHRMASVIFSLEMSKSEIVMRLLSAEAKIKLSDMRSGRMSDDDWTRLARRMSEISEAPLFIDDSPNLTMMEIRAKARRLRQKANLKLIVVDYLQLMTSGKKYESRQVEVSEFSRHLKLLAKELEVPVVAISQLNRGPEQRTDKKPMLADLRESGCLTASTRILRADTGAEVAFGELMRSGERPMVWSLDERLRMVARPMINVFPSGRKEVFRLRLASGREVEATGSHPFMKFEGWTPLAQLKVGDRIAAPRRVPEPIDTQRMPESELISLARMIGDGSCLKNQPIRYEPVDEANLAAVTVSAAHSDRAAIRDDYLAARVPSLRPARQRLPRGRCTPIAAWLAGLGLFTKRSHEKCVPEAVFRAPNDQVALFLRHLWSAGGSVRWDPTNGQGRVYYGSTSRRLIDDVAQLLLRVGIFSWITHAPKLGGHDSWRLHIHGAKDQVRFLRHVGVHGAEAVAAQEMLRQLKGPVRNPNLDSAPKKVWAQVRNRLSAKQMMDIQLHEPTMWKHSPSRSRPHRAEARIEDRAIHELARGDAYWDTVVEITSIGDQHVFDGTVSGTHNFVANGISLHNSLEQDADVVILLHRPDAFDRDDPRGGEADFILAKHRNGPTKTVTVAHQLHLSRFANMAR
Put plainly: DnaB intein splicing inhibitors, dose response, biochemical, cell-free fluorescence (AID 449749). Type of series: functional.

Series [5] can be described thus: viability of HCT116 lacking mutant beta-catenin – cell-based, human colon tumor, dose response (AID 1045).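 Also: HCT116 colon tumor cells with beta catenin knocked out; cells exposed to compound for 60 hours.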 It counts as functional.
In the next series the target is T4, Protein RecA (Mycobacterium tuberculosis, UniProt P9WHJ3).
T4 sequence (P9WHJ3 whole entry): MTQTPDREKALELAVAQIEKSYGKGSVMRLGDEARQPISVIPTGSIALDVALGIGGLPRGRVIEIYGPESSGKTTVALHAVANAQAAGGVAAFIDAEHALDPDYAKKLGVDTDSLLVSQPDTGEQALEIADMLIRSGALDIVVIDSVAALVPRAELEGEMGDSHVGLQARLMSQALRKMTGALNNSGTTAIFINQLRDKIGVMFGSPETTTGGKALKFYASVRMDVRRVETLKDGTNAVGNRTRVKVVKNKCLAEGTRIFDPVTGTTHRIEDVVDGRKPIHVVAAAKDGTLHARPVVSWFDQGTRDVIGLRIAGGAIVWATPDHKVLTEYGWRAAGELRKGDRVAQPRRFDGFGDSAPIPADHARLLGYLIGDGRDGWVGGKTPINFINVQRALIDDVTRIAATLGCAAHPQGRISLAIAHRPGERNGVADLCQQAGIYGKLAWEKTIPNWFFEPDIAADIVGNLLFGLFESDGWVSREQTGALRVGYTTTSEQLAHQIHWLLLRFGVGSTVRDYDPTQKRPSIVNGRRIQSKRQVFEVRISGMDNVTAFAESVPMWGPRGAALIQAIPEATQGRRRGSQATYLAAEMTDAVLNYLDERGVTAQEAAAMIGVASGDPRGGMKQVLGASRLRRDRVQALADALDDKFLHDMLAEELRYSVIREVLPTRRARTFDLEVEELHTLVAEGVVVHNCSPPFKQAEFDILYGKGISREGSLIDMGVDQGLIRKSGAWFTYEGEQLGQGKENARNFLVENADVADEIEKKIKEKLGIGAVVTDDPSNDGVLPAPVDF
The series can be described thus: Fluorescence Cell-Free Homogeneous Dose Retest to Identify Inhibitors of RecA-Intein Splicing Activity. [Related pubchem assays (depositor defined):AID2097, AID2223, AID489010, AID492950]. It counts as functional.

Series [6] is described as follows: viability of PTEN-deleted HCT116 cells – cell-based, HCT116 PTEN knockout, dose response (AID 1047).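 Also: HCT116 colon tumor cells with PTEN knocked out; cells exposed to compound for 60 hours before readout; potency for loss of cell viability measured by luminescence.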 It counts as functional.
A short description of series [7]: blockers of HIV-1 ZM109 envelope-driven cell-cell fusion – HeLa effector, CEM target cells, luciferase, cherry-pick, dose response (AID 652058).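 Also: luciferase signal from HIV-1 Env mediated cell-cell fusion of effector and target cells.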 It counts as functional, cell-based.
Series [8] is described as follows: HIV-1 AD8 envelope cell-cell fusion blockers – cherry-pick, dose response (AID 652062).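 Also: luciferase signal from cell-cell fusion driven by HIV-1 clade B AD8 Env; potency is for inhibitors of fusion seen as a drop in luminescence.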 It counts as functional, cell-based.
Series [9] can be described thus: blockers of HIV-1 envelope-mediated cell-cell fusion – cherry-pick, dose response (AID 652057). Type of series: functional, cell-based.

Active and inactive are the calls of the source.

Chain of Cytochrome P450 2C19 (P33261 whole entry): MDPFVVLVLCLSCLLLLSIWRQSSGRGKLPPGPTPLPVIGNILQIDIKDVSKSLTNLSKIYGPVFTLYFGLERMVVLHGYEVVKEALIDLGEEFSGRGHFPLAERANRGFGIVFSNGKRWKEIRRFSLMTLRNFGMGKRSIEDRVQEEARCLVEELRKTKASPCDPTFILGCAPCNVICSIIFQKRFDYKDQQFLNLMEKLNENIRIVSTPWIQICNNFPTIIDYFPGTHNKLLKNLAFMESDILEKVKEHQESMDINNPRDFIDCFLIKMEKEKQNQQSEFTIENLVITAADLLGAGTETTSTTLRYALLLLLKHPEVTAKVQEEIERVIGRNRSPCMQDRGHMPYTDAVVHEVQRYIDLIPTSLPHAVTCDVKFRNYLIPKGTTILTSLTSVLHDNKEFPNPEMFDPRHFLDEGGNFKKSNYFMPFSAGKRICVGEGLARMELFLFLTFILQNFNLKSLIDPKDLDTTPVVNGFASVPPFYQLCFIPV
Chain of Cytochrome P450 2C9 (P11712 whole entry): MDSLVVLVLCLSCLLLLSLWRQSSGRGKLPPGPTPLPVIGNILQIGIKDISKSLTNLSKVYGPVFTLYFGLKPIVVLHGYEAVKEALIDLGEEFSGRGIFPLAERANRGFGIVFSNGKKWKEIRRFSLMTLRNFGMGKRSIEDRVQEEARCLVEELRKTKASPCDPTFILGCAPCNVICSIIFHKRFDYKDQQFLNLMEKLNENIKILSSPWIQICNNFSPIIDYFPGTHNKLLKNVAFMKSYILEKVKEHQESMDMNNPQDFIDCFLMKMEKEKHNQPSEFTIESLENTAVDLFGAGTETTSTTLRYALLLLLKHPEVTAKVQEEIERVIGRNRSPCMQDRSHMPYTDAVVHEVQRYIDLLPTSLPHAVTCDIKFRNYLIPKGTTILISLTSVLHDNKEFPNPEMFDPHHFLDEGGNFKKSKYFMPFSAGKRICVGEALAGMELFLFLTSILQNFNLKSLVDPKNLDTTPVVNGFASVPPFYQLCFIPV
Chain of Cytochrome P450 3A4 (P08684 whole entry): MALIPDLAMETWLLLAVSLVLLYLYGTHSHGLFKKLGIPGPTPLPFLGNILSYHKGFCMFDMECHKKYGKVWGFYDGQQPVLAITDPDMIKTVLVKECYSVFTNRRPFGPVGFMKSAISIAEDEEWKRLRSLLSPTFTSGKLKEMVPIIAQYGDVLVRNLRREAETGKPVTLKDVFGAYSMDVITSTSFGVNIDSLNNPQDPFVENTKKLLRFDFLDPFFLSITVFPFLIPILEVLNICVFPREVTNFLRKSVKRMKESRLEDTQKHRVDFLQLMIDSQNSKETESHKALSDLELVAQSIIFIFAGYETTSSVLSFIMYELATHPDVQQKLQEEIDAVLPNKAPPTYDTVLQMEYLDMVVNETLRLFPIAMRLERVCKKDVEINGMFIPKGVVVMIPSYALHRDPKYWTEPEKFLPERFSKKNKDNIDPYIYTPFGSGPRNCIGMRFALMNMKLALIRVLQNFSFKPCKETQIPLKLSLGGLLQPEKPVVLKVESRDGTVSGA
Chain of Cytochrome P450 2D6 (P10635 whole entry): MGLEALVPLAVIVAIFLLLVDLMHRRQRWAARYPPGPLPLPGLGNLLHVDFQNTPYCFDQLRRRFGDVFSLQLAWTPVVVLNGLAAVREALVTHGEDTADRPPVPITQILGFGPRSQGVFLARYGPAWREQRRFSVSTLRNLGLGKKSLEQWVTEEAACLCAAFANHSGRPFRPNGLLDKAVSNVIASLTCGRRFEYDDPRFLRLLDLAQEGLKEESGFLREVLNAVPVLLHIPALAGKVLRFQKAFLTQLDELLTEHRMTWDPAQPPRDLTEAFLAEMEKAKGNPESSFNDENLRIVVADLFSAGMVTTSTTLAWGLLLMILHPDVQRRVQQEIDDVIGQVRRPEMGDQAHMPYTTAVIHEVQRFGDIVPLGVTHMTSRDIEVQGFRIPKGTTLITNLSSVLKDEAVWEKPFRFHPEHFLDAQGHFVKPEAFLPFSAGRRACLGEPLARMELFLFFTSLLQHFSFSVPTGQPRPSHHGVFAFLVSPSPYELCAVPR

For `O=NN(CCF)C(=O)NC1CCSCC1`, the GI50 in the series on SN12K1, in the series with P388/ADR and in the series with P388 was > 100 µM (inactive) in each case.
Regarding `Cc1ccc(C2CC2c2nnc(S)n2-c2ccc(Cl)cc2)cc1` (stereo unspecified), the AC50 in series [1] was 37.2 µM (active).
`C[C@@H](COc1ccc(/C=C\c2ccccc2)cc1)[N+](C)(C)C`: the AC50 on Cytochrome P450 2D6 is 3.16 µM (inconclusive); at Cytochrome P450 2C9, “inconclusive”; on Cytochrome P450 2C19 it was “inconclusive”; at Cytochrome P450 3A4 it was 10 µM (inconclusive).
As for `COCCNC(=O)c1cc(-c2cccc(OC)c2)on1`, the AC50 entry at Cytochrome P450 2C9 was “inconclusive”; on Cytochrome P450 2C19 (read-out: AC50) it was 28.2 µM (inconclusive).
As to `CCOc1cc(C#N)c(NC(=O)c2cccnc2)cc1OCC`, on Cytochrome P450 2C9, the AC50 entry was “inconclusive”. Besides, the IC50 in series [2] is > 80 µM (inactive).
As to `COc1ccc(C2=NOC(C(=O)NCc3ccco3)C2)cc1OC` (stereo unspecified), the AC50 result at Cytochrome P450 2C9 was “inconclusive”; on Cytochrome P450 1A2, 39.8 µM (inconclusive); on Cytochrome P450 2C19, “inconclusive”.
Regarding `O=C(NNC(=S)Nc1ccccc1)c1cc(Br)ccc1Cl`, in series [3], the IC50 was 12.6 µM (active).
As for `CCc1ccccc1NC(=O)c1nnn(CC(=O)Nc2ccccc2C)c1N`, the AC50 entry at Cytochrome P450 2C9 was “inconclusive”; at Cytochrome P450 3A4, 25.1 µM (inconclusive).
As for `O=C(O)/C(=C\c1ccccc1OC(F)F)Sc1nnc(-c2ccc(F)cc2)o1`, the IC50 in [3] was 19.1 µM (active).
For `Cc1ccc2c(c1)N(CCC(=O)N1CCC3(CC1)OCCO3)C(=O)C(C)O2` (stereo unspecified), the values for the AC50 entry at Cytochrome P450 2C9 and at Cytochrome P450 1A2 were “inconclusive” and 0.00631 µM (inconclusive), respectively.
As to `Cc1ccc(Cn2ncc(Cl)c(Cl)c2=O)cc1`, the AC50 in series [4] is 14.3 µM (active); in series [1] it was 8.4 µM (active). In addition, the EC50 in series [5] was 7.68 µM (active); on Protein RecA, 7.65 µM (active); in series [6] it was 10.5 µM (active).
In the case of `COc1nc(O)c(N)c(NC2OC(CO)C(O)C(O)C2O)n1` (stereo unspecified), the figures for the GI50 with SN12K1, with P388/ADR and with P388 were > 100 µM (inactive), 38.5 µM (inactive) and 13.3 µM (inactive), respectively.
Take `CCCCSCC(NC(=O)/C=C/c1c(C)[nH]c(=O)[nH]c1=O)C(=O)OC` (stereo unspecified): the GI50 with SN12K1 is 17.6 µM (inactive); in the series with P388/ADR, 141 µM (inactive); in the series with P388 it was 55.2 µM (inactive).
As for `COc1cccc2c1C(=O)c1c(O)c3c(c(O)c1C2=O)C[C@@](O)(C(=O)CO)C[C@@H]3OC1CC(N)CC(C)O1` (stereo partly specified), the GI50 with SN12K1 is 0.02 µM (active); with P388/ADR, 0.367 µM (active); in the series on P388 it was 0.0349 µM (active).
In the same order, the values of `CC1(C)CC23C4COC(=O)C2CCC1C3CC4=O` (stereo unspecified) are 14.4 µM (inactive), 1.5 µM (inactive) and 2.9 µM (inactive).
`COc1cc(/C=C/C(=O)Oc2ccc(NC(C)=O)cc2)ccc1C(=O)OCc1ccccc1`: the GI50 in the series with SN12K1 was 36.5 µM (inactive); in the series with P388/ADR, 0.69 µM (active); in the series with P388, 2.28 µM (inactive).
Regarding `O=Cc1c(Br)[nH]c2ccccc12`, the GI50 was > 100 µM (inactive) with SN12K1, 68.9 µM (inactive) in the series with P388/ADR and > 55.5 µM (inactive) with P388.
As to `O=C(C[C@H]1C[C@@H]2c3cc(NS(=O)(=O)c4ccc(F)cc4)ccc3O[C@@H]2[C@H](CO)O1)NCCc1ccccc1`, the results for the AC50 in series [7], in series [8] and in series [9] were 1.2 µM (active), 8.44 µM (active) and 0.666 µM (active), respectively.
The like results for `COc1ccc(NC(=O)Nc2ccc3c(c2)CC(=O)N([C@H](C)CO)C[C@H](C)[C@H](CN(C)S(=O)(=O)c2ccccc2)O3)cc1` were, in that order, < 0.26 µM (active), 0.981 µM (active) and < 0.26 µM (active).
In the case of `C[C@H]1CCCCO[C@H](CN(C)Cc2ccc3c(c2)OCO3)[C@@H](C)CN([C@@H](C)CO)C(=O)c2cc(NC(=O)Nc3ccc(C(F)(F)F)cc3)ccc2O1`, the half-maximal activity concentration (AC50) in [1] was 12.1 µM (active).

In general, GI50 refers to the concentration giving 50% growth inhibition. As usually defined, the AC50 is the midpoint of the concentration-response curve, whichever way the signal moves. What is called IC50 is the point on the concentration scale where inhibition reaches its midpoint. The term EC50 denotes the concentration at which the effect is half-maximal.
